Data from patent publication US20250345318A1, “COMPOUND AND USE THEREOF IN PREVENTING OR TREATING RADIATION DAMAGE” (SIMCERE PHARMACEUTICAL CO., LTD., priority 2022, published 2025).

Columns and labels:
[1] = system: BEAS-2B cells; assay: CCK-8 cell viability, JAC4 with X-ray, BEAS-2B (Example 22); format: cell-based, human; conditions: 10 μM JAC4 24 h + 4 Gy X-ray 24 h
Method: SPCA-1 and BEAS-2B cells were cultured in a 90%/DMEM+10% FBS+100 μg/mL ciprofloxacin culture medium. The SPCA-1 and BEAS-2B cells were pretreated for 24 h with 10 μM JAC4 and subjected to 4 Gy X-ray treatment for 24 h and then CCK-8 detection, so as to explore the influence of JAC4 in combination with X-ray on the viability of SPCA-1 and BEAS-2B cells. The specific procedures are as follows:
1. SPCA-1 and BEAS-2B cells in the exponential growth phase were plated in a 96-well plate at 5,000 cells/well in triplicate for each group.
2. After 24 h of culture, when the cells fully adhered to the container wall and returned to normal morphology, the cells were treated with X-ray radiation of 0, 4, 8, 12, 16, or 20 Gy or JAC4 at 0, 1, 5, 10, 20, or 50 μM.
3. After 24 h of treatment, CCK-8 reagent was added at 10 μL/well, and the cells were incubated in a cell incubator for 1 h. The absorbance (OD) at 450 nm was measured.
4. Cell viability equation: cell viability (%)=[…]×100%/(ODcontrol−ODblank).

[2] = system: C57BL/6 male mice; assay: Therapeutic JAC4 administration, total body X-ray irradiation, small intestine villus length (Example 7); format: in vivo
Method: C57BL/6 male mice (24.8±1.6 g in body weight) aged 10 weeks were divided into 4 groups. The mice were subjected to total body X-ray irradiation (6 Gy) before JAC4 (100 mg/kg) or an equal volume of vehicle (polyethylene glycol:ethanol:physiological saline=47.5:7.5:50, v/v/v) was orally administered to the mice once daily for 7 consecutive days. The small intestine tissues were collected for HE staining and inspection, and the small intestine villus length was measured in all groups and statistically analyzed. The specific procedures are as follows: 3 mice were randomly selected from each group for statistical analysis of their small intestine tissue HE staining images, and for each mouse, 6 fields of view were randomly selected for inspection (*** p<0.001).

[3] = system: JWA^IEC-ko mice; assay: X-ray-induced intestinal injury in intestinal epithelial JWA-knockout mice (Example 12); format: in vivo; conditions: JAC4 10 mg/kg daily, ABI 10 Gy
Description: The Model Animal Research Institute of Nanjing University was commissioned to conduct the construction of JWA^flox/+ A129 mice and embryo cryopreservation, preservation, and thawing. These mice were bred with wild-type C57/BL6 mice for over six generations to give mice of C57/BL6 background. Villin-cre mice, provided by Shanghai Model Organisms Center, Inc., were C57/BL6 mice. The JWA-knockout mice (JWA^ko) and their littermate control (JWA^wt) counterparts were derived from an in-house conservation breed. The JWA^flox/flox mice were bred from the JWA^flox/+ mice. The intestinal epithelial JWA-knockout mice (JWA^IEC-ko) and control group (JWA^IEC-wt) were obtained through breeding JWA^flex/flex mice with Villin-cre mice.
The off-target model was established using JWA^IEC-ko mice and their JWA^IEC-wt littermates (8 weeks old), and the mice receiving radiation were divided into 4 groups: (1) a JWA^IEC-wt mice+vehicle group (n=5); (2) a JWA^IEC-wt mice+JAC4 group (n=5); (3) a JWA^IEC-ko mice+vehicle group (n=6); (4) a JWA^IEC-ko mice+JAC4 group (n=5). All mice were subjected to abdominal irradiation at 10 Gy. 7 days before radiation, 10 mg/kg JAC4 or an equal volume of vehicle (polyethylene glycol:ethanol:physiological saline=40:7.5:52.5, v/v/v) was administered intragastrically daily until the end of modeling. The blank control group (wild type, n=6) was not irradiated, and the modeling was terminated on day 4 after radiation.
To verify whether the protective effect of JAC4 on X-ray radiation-induced intestinal damage in mice is dependent on the expression of JWA, the present disclosure verified the targeting effect of JAC4 using JWA^IEC-ko mice.
JWA^IEC-ko and JWA^IEC-wt mice were treated daily with JAC4 (10 mg/kg) or an equal volume of vehicle (polyethylene glycol:ethanol:physiological saline=47.5:7.5:50, v/v/v), respectively, from 7 days before the ABI (10 Gy) exposure to 4 days after the exposure. […] Meanwhile, the contents of TNF-α and IL-1β were consistent with the results of FD4. […] As shown in panels E and F, ABI increased the activity of GSH-Px (530.8±207.8 vs. 406.2±197.9 U/mL) and decreased the activity of CAT (89.4 f 0.4 vs. 68.7±14.2 U/mL). JAC4 further enhanced the antioxidant enzymes in JWA^IEC-wt mice (815.1±203.9 vs. 530.8±207.8 U/mL and 85.9±8.2 vs. 68.7±14.2 U/mL; P<0.05, P<0.05). […] Intestinal tissues were isolated, and the expression of apoptotic molecules was detected by Western blot (FIG. 16J). In wild-type mice, compared with the control group, X-rays increased the expression of Bax and cleaved PARP1 in the small intestine.

[4] = system: BEAS-2B cells; assay: Plate colony formation, BEAS-2B (Example 22); format: cell-based, human
Method: The cell proliferation capacity was determined by a plate colony formation experiment, with the following specific procedures.
1. SPCA-1 and BEAS-2B cells (or SPCA-1 and BEAS-2B cells transfected with JWA-knockdown plasmids) in the exponential growth phase were plated in 6-well plates at a specific amount. The number of plated cells is as follows
2. After the cells adhered to the container wall, the cells were treated (or not treated) with […] JAC4 and treated with X-ray of 0, 2, 4, or 6 Gy. The medium was replaced with a fresh medium containing JAC4 at the corresponding concentration once every 2 days (or the cells were treated with X-ray of 0, 2, 4, or 6 Gy after adhesion, and the medium was replaced with a fresh medium once every 2 days).
3. After the cells were cultured for 10-14 days, colonies were visually observed. The culture medium was discarded, and the cells were fixed with methanol for 10-20 min, stained with crystal violet for 10 min, slowly washed with flowing clear water thrice, photographed, and counted for colonies containing>50 cells.
4. The colony forming efficiency (CFE)=(number of colonies formed/number of seeded cells) 100% was calculated, and the cell survival fraction (SF)=(colony forming efficiency of treatment group/colony forming efficiency of 0 Gy group)×100% was calculated from the colony forming efficiency.

With `c1ccc(CSc2nnc(C3COc4ccccc4O3)o2)nc1` (centres unmarked) [JAC4] the “BEAS-2B cell viability (CCK-8)” value [1] was “alleviated the inhibitory effect of X-ray”, the “small intestine villus length” value ([2]; TBI 6 Gy, then JAC4 100 mg/kg oral once daily 7 days) was 263.11±37.99 μm and the “small intestine villus length” value ([2]; non-radiation, JAC4 100 mg/kg oral 7 days) was 306.71±24.22 μm. The “enhancement of antioxidant enzymes (GSH-Px, CAT)” value [3] was “not confirmed”, the “plasma FD4 content” value [3] was 9192.8 ± 5573.2 ng/mL and the “plasma IL-1β” value [3] was 65.6 ± 3.3 ng/mL. The “plasma TNF-α” value [3] was 769.8 ± 112.3 ng/mL, the crypt height ([3]; day 4) was 53.0±3.0 μm and the intestinal villus length ([3]; day 4) was 150.6±8.4 μm. The “cell survival (radiosensitization curve)” value ([4]; 10 μM JAC4 + X-ray vs X-ray monotherapy) was “slightly increased” and the “number of colonies formed” value ([4]; JAC4 in combination with X-ray) was “increased”.
